# Where two headings read alike, the source gives them in different places.
# What was measured:
# [1] = system: ScHOS2 deletion mutant; test: Serial dilution sensitivity of yeast deletion strain to antifungal agents; assay type: cell-based, S. cerevisiae; details: FIGS. 4-12
# Excerpt: (§1) Standard serial dilution techniques were used to determine sensitivity of yeast deletion strains to various antifungal agents.
# [2] = target: T1, recombinant Hos2p.V5His6 (Saccharomyces cerevisiae, UniProt P53096); test: HDAC assay with purified recombinant Hos2p.V5His6 fractions; assay type: biochemical, S. cerevisiae; details: for IC50: read-out: IC50 (ug/ml)
# T1 construct: YGL194C/HOS2 from S. cerevisiae (residues 1-452 upstream the stop codon); made in house; host or cells: S. cerevisiae BY4742 or isogenic Δhos2 strain carrying pYES2.1.HOS2.V5His6 #7, galactose-induced
# T1 sequence (P53096 whole entry, the tested form may be a part): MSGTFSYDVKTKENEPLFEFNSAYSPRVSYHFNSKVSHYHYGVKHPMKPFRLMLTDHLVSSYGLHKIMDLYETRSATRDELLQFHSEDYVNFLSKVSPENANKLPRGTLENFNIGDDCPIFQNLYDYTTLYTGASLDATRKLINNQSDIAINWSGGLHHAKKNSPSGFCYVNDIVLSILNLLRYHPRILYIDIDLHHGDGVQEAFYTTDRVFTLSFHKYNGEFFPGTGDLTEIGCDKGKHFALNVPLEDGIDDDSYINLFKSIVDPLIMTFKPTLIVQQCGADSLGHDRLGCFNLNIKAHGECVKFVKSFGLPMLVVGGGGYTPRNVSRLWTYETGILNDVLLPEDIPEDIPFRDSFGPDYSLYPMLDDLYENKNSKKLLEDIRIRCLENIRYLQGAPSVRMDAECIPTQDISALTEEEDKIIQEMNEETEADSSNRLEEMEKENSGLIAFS
# Experimental: The induction of Hos2p.V5His6 expression by galactose was performed using either glucose or raffinose as the carbon source (pYES2.1 TOPO TA Expression Kit Manual, Invitrogen, cat. # K4150-01), Cell lysates were prepared from spheroplasts that had been generated from strains BY4742/pYES2.1.HOS2.V5His6 # 7 and Δhos2/pYES2.1.HOS2.V5His6 #7 grown in the presence or in the absence of galactose. Spheroplasts were prepared from cells that were grown in YEPD (BY4742, Δhos2), SC-URA+2% glucose or raffinose or SC-URA+1% glucose or raffinose+1% galactose (BY4742/pYES2.1.HOS2.V5His6 # 7 and Δhos2/pYES2.1.HOS2.V5His6 #7) by the lyticase method of Franzusoff et al. (1991). The collection of fractions containing or not Hos2pV5His6 was performed by IMAC using the H is GraviTrap Affinity Columns (GE Healthcare cat. # 11-033-99). Binding buffer was as recommended by the manufacturer, whereas three different elution buffers were used sequentially: 20 mM sodium phosphate+500 mM NaCl+100 mM, 250 mM or 500 mM imidazole, pH 7.4. Fractions were further desalted using PD-10 (GE Healthcare, cat. # 17-0851-01) and NAP-5 (GE Healthcare, cat. # 17-0853-02) desalting columns. Fractions that were eluted with the three different buffers containing 100, 250 or 500 mM imidazole, pH 7.4 and desalted were assayed for HDAC activity (see below). Only the corresponding fractions containing significant intrinsic HDAC activity (20 mM sodium phosphate+500 mM NaCl+250 mM imidazole) were kept for further studies.
# Fractions containing the recombinant Hos2p.V5His6 were incubated for 2 h with or without HDAC inhibitor (0-20 μg/ml). The HDAC activity that was specifically associated with the recombinant Hos2p.V5His6 expressed following galactose induction was determined assuming that
# FluoHos2p.V5His6 specific=Fluo+galactose−Fluo−galactose
# where Fluo+galactose=HDAC activity associated with all HDACs copurified along with Hos2p.V5His6 Fluo+glucose=HDAC activity associated with all HDACs copurified in the absence of Hos2p.V5His6
# [3] = system: HosB; details: cited from earlier work
# [4] = system: Candida glabrata; details: cited from earlier work
# [5] = system: C. albicans; details: cited from earlier work
# [6] = system: A. nidulans Hda1 enzyme; details: cited from earlier work
# [7] = system: ScRPD3 deletion mutant; test: Serial dilution sensitivity of yeast deletion strain to antifungal agents; assay type: cell-based, S. cerevisiae; details: FIG. 3
# Excerpt: as §1
# [8] = system: WT/ScHOS2 and Δhos2/ScHOS2; test: MIC80 testing (CLSI M27-A2), complementation of Δhos2 by recombinant ScHos2p; assay type: cell-based, S. cerevisiae; details: 72 hours, 30° C., FIG. 14
# Experimental: Minimum inhibitory concentration (MIC) testing was performed according to CLSI M27-A2 method for yeast testing using CSM-URA medium (Complete Synthetic Medium minus Uracile) containing either 2% raffinose or 1% raffinose+1% galactose as the carbon source. Itraconazole concentrations ranged from […]. Log-phase cells grown in CSM-URA+2% raffinose or CSM-URA+1% raffinose+1% galactose were inoculated at 5×10^3 cells/ml. The MIC80 of itraconazole was determined after 72 hours growth at 30° C.
smiles,measurement,setting,value
Nc1nc(=O)[nH]cc1F [5-fluorocytosine],hypersensitivity of ScHOS2 deletion mutant to antifungal agent,[1],not hypersensitive
C[C@@H]1[C@H](O)[C@@H](C)/C=C/C=C/C=C/C=C/C=C/C=C/C=C/[C@H](O[C@@H]2O[C@H](C)[C@@H](O)[C@H](N)[C@@H]2O)C[C@@H]2O[C@](O)(C[C@@H](O)C[C@@H](O)[C@H](O)CC[C@@H](O)C[C@@H](O)CC(=O)O[C@H]1C)C[C@H](O)[C@H]2C(=O)O [Amphotericin B],hypersensitivity of ScHOS2 deletion mutant to antifungal agent,[1],not hypersensitive
O=C(Cc1ccc(CCCCc2ccccc2)cc1)NO [Compound 4],IC50,[2]; Hos2 from S. cerevisiae BY4742/HOS2.V5His6 grown in glucose (GAL1 repressed) or galactose (induced),~14.1 µM
same,IC50,[2]; Hos2 from S. cerevisiae BY4742/HOS2.V5His6 grown in raffinose (GAL1 repressed) or galactose (induced),~10.6 µM
same,inhibition at 5 µg/mL,"[2]; read-out: % inhibition at 5 μg/ml, Hos2 from S. cerevisiae BY4742/HOS2.V5His6 grown in glucose (GAL1 repressed) or galactose (induced), 5 μg/ml, 2 h",60.7%
same,inhibition at 5 µg/mL,"[2]; read-out: % inhibition at 5 μg/ml, Hos2 from S. cerevisiae BY4742/HOS2.V5His6 grown in raffinose (GAL1 repressed) or galactose (induced), 5 μg/ml, 2 h",61.2%
same,inhibition at 5 µg/mL,"[2]; read-out: % inhibition at 5 μg/ml, Hos2 from S. cerevisiae Δhos2/HOS2.V5His6 grown in glucose (GAL1 repressed) or galactose (induced), 5 μg/ml, 2 h",55.2%
same,IC50,[2]; Hos2 from S. cerevisiae Δhos2/HOS2.V5His6 grown in glucose (GAL1 repressed) or galactose (induced),~15.9 µM
same,inhibition at 5 µg/mL,"[2]; read-out: inhibition of purified Hos2 protein, 5 ug/ml, summary of Table 1",> 60%
C[C@@H]1NC(=O)[C@H]2CCCN2C(=O)[C@H](CCCCCC(=O)[C@@H]2CO2)NC(=O)[C@@H](C)NC1=O [HC toxin],sensitivity of the enzyme to the HDAC inhibitor,[3],highly resistant
"CC(/C=C/C(=O)NO)=C\[C@@H](C)C(=O)c1ccc(N(C)C)cc1 [TSA, trichostatin A]",ability to enhance the sensitivity to azole antifungal agents,[4],not found to enhance the sensitivity
same,ability to enhance the sensitivity to azole antifungal agents,[5],able to enhance the sensitivity
same,sensitivity of the enzyme to the HDAC inhibitor,[3],highly resistant
same,sensitivity of the enzyme to the HDAC inhibitor,[6],highly sensitive
CC(Cc1ccc(C(C)(C)C)cc1)CN1C[C@@H](C)O[C@@H](C)C1 (stereo partly drawn) [fenpropimorph],hypersensitivity of ScHOS2 deletion mutant to antifungal agent,[1],hypersensitive
OC(Cn1cncn1)(Cn1cncn1)c1ccc(F)cc1F [fluconazole],hypersensitivity of ScRPD3 deletion mutant to antifungal agent,[7],not hypersensitive
same,hypersensitivity of ScHOS2 deletion mutant to antifungal agent,[1],hypersensitive
CCC(C)n1ncn(-c2ccc(N3CCN(c4ccc(OCC5COC(Cn6cncn6)(c6ccc(Cl)cc6Cl)O5)cc4)CC3)cc2)c1=O (stereo not drawn) [itraconazole],difference in sensitivity (MIC80) between WT/ScHOS2 and Δhos2/ScHOS2,[8]; expression of Hos2 induced by galactose,2 fold
same,difference in sensitivity (MIC80) between WT/ScHOS2 and Δhos2/ScHOS2,[8]; grown in the presence of raffinose,4 fold
CC(=O)N1CCN(c2ccc(OCC3COC(Cn4ccnc4)(c4ccc(Cl)cc4Cl)O3)cc2)CC1 (stereo not drawn) [ketoconazole],hypersensitivity of ScRPD3 deletion mutant to antifungal agent,[7],not hypersensitive
same,hypersensitivity of ScHOS2 deletion mutant to antifungal agent,[1],hypersensitive
C[C@@H]([C@H](N)C(=O)N[C@H](C(=O)O)[C@H]1O[C@@H](n2ccc(=O)[nH]c2=O)[C@H](O)[C@@H]1O)[C@H](O)c1ccc(O)cn1 [nikkomycin],hypersensitivity of ScHOS2 deletion mutant to antifungal agent,[1],not hypersensitive
CN(C/C=C/C#CC(C)(C)C)Cc1cccc2ccccc12 [terbinazine],hypersensitivity of ScHOS2 deletion mutant to antifungal agent,[1],not hypersensitive
C[C@@H](c1ncncc1F)[C@](O)(Cn1cncn1)c1ccc(F)cc1F [voriconazole],hypersensitivity of ScHOS2 deletion mutant to antifungal agent,[1],hypersensitive
